Laboratory results published in EP1632243A1 (priority 2003, dated 2004).
Values after ≈ are worked out from the molar mass of the structure shown. Like-named read-outs stand apart in the source and are kept apart here. Residues, ends and D or L forms follow the SMILES beside them.

Tests used:
MT-4 cells = experiment: Cytotoxicity to MT-4 cells, MTT method; assay type: cell-based; conditions: 12000ng/ml to 24ng/ml, 6 days
Description: Then test drugs were added. […] Cell growth was subsequently determined by the MTT method.

in vitro = conditions: human, 293 cells

Row | Compound | cell growth (MT-4 cells) | half-inhibitory concentration (IC50) (No.04 coronavirus) | inhibition of coronavirus in 293 cell cultures (No.04 coronavirus) | minimum inhibitory concentration (MIC) (No.04 coronavirus) | treatment index (TI) (No.04 coronavirus) | half-inhibitory concentration (IC50) (No.04 coronavirus; 24 h) | minimum inhibitory concentration (MIC) (No.04 coronavirus; 24 h) | CC50 at 144 h (in vitro) | MNTC at 144 h (in vitro)
1 | AP-6: high-affinity peptide antagonist targeting HAb18G/CD147, amino acid sequence SEQ ID NO:8 (YPFHHKHWHRPN) | not affected | 31.25 ± 0 µg/mL | capable of inhibiting coronavirus | 62.25 ± 0 µg/mL | 16 |  |  |  | 
2 | AP-1: high-affinity peptide antagonist targeting HAb18G/CD147, amino acid sequence SEQ ID NO:3 (MTHDPVISLPTT) | not affected | 31.25 ± 0 µg/mL | capable of inhibiting coronavirus | 62.25 ± 0 µg/mL | 16 |  |  |  | 
3 | CC(C)C[C@H](NC(=O)[C@H](CCCCN)NC(=O)[C@@H](N)Cc1ccc(O)cc1)C(=O)N1CCC[C@H]1C(=O)NCC(=O)N[C@@H](Cc1c[nH]cn1)C(=O)N[C@@H](Cc1c[nH]cn1)C(=O)N[C@@H](Cc1c[nH]cn1)C(=O)N[C@@H](Cc1c[nH]cn1)C(=O)N[C@@H](Cc1ccc(O)cc1)C(=O)N[C@@H](CCCNC(=N)N)C(=O)N1CCC[C@H]1C(=O)O [AP-9] (H-YKLPGHHHHYRP-OH; N-terminus and C-terminus assumed) | not affected |  | capable of inhibiting coronavirus |  | 32 | 15.6 ± 0 µg/mL | 31.3 ± 0 µg/mL (≈ 0.0203 mM) |  | 
4 | Nc1nc(O)c2ncn(COC(CO)CO)c2n1 [Ganciclovir, ganciclovir] |  |  |  |  |  |  |  | > 6000 µg/mL | > 6000 µg/mL
